# Source: patent publication US9701680B2, “Pyrimidine and pyridine compounds and their usage” (HUTCHISON MEDIPHARMA LIMITED, priority 2013, dated 2017)
# pIC50: −log10 of the molar value.
# Legend:
# Recombinant human FGFR1 = Recombinant human FGFR1 (Homo sapiens, UniProt P11362); test: Transcreener Kinase Assay of FGFR1; format: biochemical; settings: FP
# In short: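 Recombinant human FGFR1 was reacted with Poly E4Y substrate and ATP for 45 min at 28 °C, with compounds at 1 to 0.0005 µM in 1% DMSO final. Inhibition is relative to the DMSO control, with IC50 from a curve fit.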
# Recombinant human FGFR2 = Recombinant human FGFR2 (Homo sapiens, UniProt P21802); test: Transcreener Kinase Assay of FGFR2; format: biochemical; settings: FP
# Chain of Recombinant human FGFR2 (P21802 22-821): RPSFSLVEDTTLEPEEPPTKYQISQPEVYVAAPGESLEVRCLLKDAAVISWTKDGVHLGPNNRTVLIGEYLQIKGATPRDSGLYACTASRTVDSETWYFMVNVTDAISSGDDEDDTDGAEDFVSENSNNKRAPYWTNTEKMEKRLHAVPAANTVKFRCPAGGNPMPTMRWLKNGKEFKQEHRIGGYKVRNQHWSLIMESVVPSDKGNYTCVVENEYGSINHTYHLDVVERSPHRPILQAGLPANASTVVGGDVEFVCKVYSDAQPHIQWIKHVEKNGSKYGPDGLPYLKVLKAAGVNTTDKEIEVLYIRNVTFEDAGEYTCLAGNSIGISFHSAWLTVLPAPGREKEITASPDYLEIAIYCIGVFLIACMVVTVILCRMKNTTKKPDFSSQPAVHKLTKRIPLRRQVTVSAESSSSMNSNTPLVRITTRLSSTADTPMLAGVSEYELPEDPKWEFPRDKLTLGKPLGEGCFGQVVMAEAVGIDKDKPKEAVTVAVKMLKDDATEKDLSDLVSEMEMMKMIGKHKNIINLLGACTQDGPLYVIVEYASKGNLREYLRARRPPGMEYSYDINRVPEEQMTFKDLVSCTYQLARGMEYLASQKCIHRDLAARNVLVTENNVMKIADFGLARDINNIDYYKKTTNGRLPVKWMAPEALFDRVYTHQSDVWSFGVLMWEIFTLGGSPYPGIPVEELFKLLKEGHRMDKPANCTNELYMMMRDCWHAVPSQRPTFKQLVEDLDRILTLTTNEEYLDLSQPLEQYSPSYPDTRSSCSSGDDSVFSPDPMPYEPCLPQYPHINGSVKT
# FGFR3 kinase = FGFR3 kinase (Homo sapiens, UniProt P22607); test: Z-Lyte Kinase Assay of FGFR3; format: biochemical; settings: Z-lyte
# Chain of FGFR3 kinase (P22607 23-806): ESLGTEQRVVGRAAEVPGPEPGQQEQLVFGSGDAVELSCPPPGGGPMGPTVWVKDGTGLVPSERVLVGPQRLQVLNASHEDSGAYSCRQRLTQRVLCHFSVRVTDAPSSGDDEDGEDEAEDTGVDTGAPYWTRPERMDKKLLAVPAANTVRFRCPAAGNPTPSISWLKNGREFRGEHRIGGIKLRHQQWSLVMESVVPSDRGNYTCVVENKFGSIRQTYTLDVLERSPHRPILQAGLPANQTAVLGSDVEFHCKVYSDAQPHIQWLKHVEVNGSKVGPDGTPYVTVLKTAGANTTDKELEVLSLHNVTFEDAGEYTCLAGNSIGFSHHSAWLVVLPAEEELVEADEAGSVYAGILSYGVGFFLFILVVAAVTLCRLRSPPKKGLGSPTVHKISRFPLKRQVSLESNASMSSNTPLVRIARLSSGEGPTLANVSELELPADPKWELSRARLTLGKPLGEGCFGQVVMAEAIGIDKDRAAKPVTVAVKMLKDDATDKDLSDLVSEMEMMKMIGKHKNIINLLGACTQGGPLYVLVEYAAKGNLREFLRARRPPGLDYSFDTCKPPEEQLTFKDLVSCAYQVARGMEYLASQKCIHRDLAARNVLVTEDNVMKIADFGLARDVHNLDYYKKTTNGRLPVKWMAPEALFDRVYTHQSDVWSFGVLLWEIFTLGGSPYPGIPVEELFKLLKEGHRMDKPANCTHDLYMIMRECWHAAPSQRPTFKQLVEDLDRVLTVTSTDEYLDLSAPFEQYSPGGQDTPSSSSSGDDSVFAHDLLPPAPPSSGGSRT
# In short: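 Z-LYTE FRET assay, kinase 0.7 μg/ml with Tyr 4 peptide 4 μM (P/K solution), ATP diluted to 300 uM in 1.33× buffer; compound final 1 to 0.00046 μM, 2% DMSO.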
# KG-1 = test: Cellular Proliferation Assay (Cell Counting Kit-8), KG-1; format: cell-based; settings: Homo sapiens; KG-1 cells, 72 hours; read-out: KG1 IC50
# In short: (§1)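 Seeding per well: KG-1 30000, SNU-16 5000, RT-112 1000 cells. After 24 h an 8-point series (working dilutions 10 to 0.004 μM in 5% DMSO) was added for 72 h at 37 °C, 5% CO2. CCK-8 OD450 after 1 h, corrected for media background and normalised to untreated cells, gave IC50.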
# SNU-16 = test: Cellular Proliferation Assay (Cell Counting Kit-8), SNU-16; format: cell-based; settings: Homo sapiens; SNU-16 cells, 72 hours
# In short: as §1
# RT-112 = test: Cellular Proliferation Assay (Cell Counting Kit-8), RT-112; format: cell-based; settings: Homo sapiens; RT-112 cells, 72 hours
# In short: as §1
# Chain of Recombinant human FGFR1 (P11362 22-822): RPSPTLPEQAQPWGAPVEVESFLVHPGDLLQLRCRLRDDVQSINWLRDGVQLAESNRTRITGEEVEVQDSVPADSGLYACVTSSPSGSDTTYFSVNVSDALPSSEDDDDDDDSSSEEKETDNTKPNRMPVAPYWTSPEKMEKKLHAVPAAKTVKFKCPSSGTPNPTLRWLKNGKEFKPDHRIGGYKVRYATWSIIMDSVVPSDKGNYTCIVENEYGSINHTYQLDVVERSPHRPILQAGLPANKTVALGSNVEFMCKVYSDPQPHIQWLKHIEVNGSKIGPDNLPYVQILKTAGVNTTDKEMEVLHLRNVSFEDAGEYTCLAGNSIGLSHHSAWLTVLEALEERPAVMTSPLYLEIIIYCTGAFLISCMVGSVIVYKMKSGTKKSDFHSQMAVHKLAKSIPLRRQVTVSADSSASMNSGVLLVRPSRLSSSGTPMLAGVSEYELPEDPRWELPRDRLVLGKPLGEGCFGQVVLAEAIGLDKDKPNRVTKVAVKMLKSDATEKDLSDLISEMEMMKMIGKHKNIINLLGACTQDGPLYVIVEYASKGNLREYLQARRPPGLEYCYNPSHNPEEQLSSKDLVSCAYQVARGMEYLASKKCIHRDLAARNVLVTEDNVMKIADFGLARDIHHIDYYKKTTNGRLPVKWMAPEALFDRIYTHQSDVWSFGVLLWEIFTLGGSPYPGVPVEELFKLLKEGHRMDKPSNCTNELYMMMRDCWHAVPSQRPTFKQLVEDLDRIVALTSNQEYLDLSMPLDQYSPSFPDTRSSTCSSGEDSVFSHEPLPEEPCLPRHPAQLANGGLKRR
pIC50 (Recombinant human FGFR1),pIC50 (Recombinant human FGFR2),pIC50 (FGFR3 kinase),pIC50 (SNU-16),SMILES,pIC50 (KG-1),pIC50 (RT-112)
8.05,8.10,7.89,7.85,CNC(=O)c1cc(OC)c(Cl)c(COc2cnc(Nc3ccc(N4C[C@@H](C)N[C@@H](C)C4)c(C)c3)nc2)c1F [Compound 298],8.10,7.82
8.22,8.22,8.10,7.96,CNC(=O)c1cc(OC)c(Cl)c(COc2cnc(Nc3ccc(N4C[C@@H](C)N[C@@H](C)C4)c(F)c3)nc2)c1F [Compound 299],8.15,7.82
8.05,8.22,8.00,7.96,CNC(=O)c1cc(COc2cnc(Nc3cccc(CCN4CCN(CCOC)CC4)c3)nc2)c(F)c(OC)c1 [Compound 301],7.62,7.43
7.96,8.15,8.15,7.64,CNC(=O)c1cc(COc2cnc(Nc3ccc(O[C@@H]4O[C@H](CO)[C@@H](O)[C@H](O)[C@H]4O)cc3)nc2)c(Cl)c(OC)c1 [Compound 303],7.40,7.19
7.54,7.92,7.59,7.64,CNC(=O)c1cc(C#Cc2cnc(Nc3ccc(N4C[C@@H](C)N[C@@H](C)C4)c(OC)c3)nc2)c(F)c(OC)c1 [Compound 306],7.00,7.80
7.72,7.77,7.68,9.00,CCN1CCN(c2ccc(Nc3ncc(C#Cc4cc(C(=O)NC)cc(OC)c4F)cn3)cc2OC)CC1 [Compound 307],8.30,8.30
